# Tested on: cancer cell line MDA-MB-468
# Experiment: Combination index with known cancer drugs against proliferation (Calcusyn software)
# Format: cell-based
# Conditions: MDA-MB-468
# How it was run: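 MTT proliferation assay: cells exposed continuously to drug for 96 h at 37° C, 5% CO2, screening range 1-200 μg/ml, then MTT 4 h, DMSO solubilisation, absorbance 570 nm. Synergy with known drugs given as combination index (Calcusyn).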
smiles,measurement,setting,value
"CC1(C)Cc2ccc(C(=O)N[C@@H](Cc3ccccc3)C(=O)O)c(O)c2C(=O)O1 [ALM-74, L-Phenyl Alanine Amide of Compound ALM-73]",Combination Index,"Cisplatin 1 × 10^−2 mol/L, ALM-74 0.1 μg/ml",0.006
same,Combination Index,"Cisplatin 1 × 10^−2 mol/L, ALM-74 0.5 μg/ml",0.008
same,Combination Index,"Cisplatin 1 × 10^−2 mol/L, ALM-74 1.0 μg/ml",0.082
same,Combination Index,"Cisplatin 1 × 10^−2 mol/L, ALM-74 5.0 μg/ml",0.130
same,Combination Index,"Cisplatin 1 × 10^−3 mol/L, ALM-74 0.1 μg/ml",No
same,Combination Index,"Cisplatin 1 × 10^−3 mol/L, ALM-74 0.5 μg/ml",No
same,Combination Index,"Cisplatin 1 × 10^−3 mol/L, ALM-74 1.0 μg/ml",0.039
same,Combination Index,"Cisplatin 1 × 10^−3 mol/L, ALM-74 5.0 μg/ml",0.346
same,Combination Index,"Cisplatin 1 × 10^−4 mol/L, ALM-74 0.1 μg/ml",No
same,Combination Index,"Cisplatin 1 × 10^−4 mol/L, ALM-74 0.5 μg/ml",No
same,Combination Index,"Cisplatin 1 × 10^−4 mol/L, ALM-74 1.0 μg/ml",0.061
same,Combination Index,"Cisplatin 1 × 10^−4 mol/L, ALM-74 5.0 μg/ml",1.031
same,Combination Index,"Cisplatin 1 × 10^−5 mol/L, ALM-74 0.1 μg/ml",No
same,Combination Index,"Cisplatin 1 × 10^−5 mol/L, ALM-74 0.5 μg/ml",No
same,Combination Index,"Cisplatin 1 × 10^−5 mol/L, ALM-74 1.0 μg/ml",0.069
same,Combination Index,"Cisplatin 1 × 10^−5 mol/L, ALM-74 5.0 μg/ml",0.778
same,Combination Index,"Cisplatin 1 × 10^−6 mol/L, ALM-74 0.1 μg/ml",No
same,Combination Index,"Cisplatin 1 × 10^−6 mol/L, ALM-74 0.5 μg/ml",No
same,Combination Index,"Cisplatin 1 × 10^−6 mol/L, ALM-74 1.0 μg/ml",0.083
same,Combination Index,"Cisplatin 1 × 10^−6 mol/L, ALM-74 5.0 μg/ml",No
same,Combination Index,"Cisplatin 1 × 10^−7 mol/L, ALM-74 0.1 μg/ml",No
same,Combination Index,"Cisplatin 1 × 10^−7 mol/L, ALM-74 0.5 μg/ml",No
same,Combination Index,"Cisplatin 1 × 10^−7 mol/L, ALM-74 1.0 μg/ml",0.092
same,Combination Index,"Cisplatin 1 × 10^−7 mol/L, ALM-74 5.0 μg/ml",No
same,Combination Index,"Cisplatin 1 × 10^−8 mol/L, ALM-74 0.1 μg/ml",No
same,Combination Index,"Cisplatin 1 × 10^−8 mol/L, ALM-74 0.5 μg/ml",No
same,Combination Index,"Cisplatin 1 × 10^−8 mol/L, ALM-74 1.0 μg/ml",0.091
same,Combination Index,"Cisplatin 1 × 10^−8 mol/L, ALM-74 5.0 μg/ml",No
same,Combination Index,"Cisplatin 1 × 10^−9 mol/L, ALM-74 0.1 μg/ml",0.895
same,Combination Index,"Cisplatin 1 × 10^−9 mol/L, ALM-74 0.5 μg/ml",No
same,Combination Index,"Cisplatin 1 × 10^−9 mol/L, ALM-74 1.0 μg/ml",0.090
same,Combination Index,"Cisplatin 1 × 10^−9 mol/L, ALM-74 5.0 μg/ml",No
same,Combination Index,"Doxorubicin 1 × 10^−4 mol/L, ALM-74 0.1 μg/ml",No
same,Combination Index,"Doxorubicin 1 × 10^−4 mol/L, ALM-74 0.5 μg/ml",0.277
same,Combination Index,"Doxorubicin 1 × 10^−4 mol/L, ALM-74 1.0 μg/ml",No
same,Combination Index,"Doxorubicin 1 × 10^−4 mol/L, ALM-74 5.0 μg/ml",No
same,Combination Index,"Doxorubicin 1 × 10^−5 mol/L, ALM-74 0.1 μg/ml",0.001
same,Combination Index,"Doxorubicin 1 × 10^−5 mol/L, ALM-74 0.5 μg/ml",0.007
same,Combination Index,"Doxorubicin 1 × 10^−5 mol/L, ALM-74 1.0 μg/ml",0.376
same,Combination Index,"Doxorubicin 1 × 10^−5 mol/L, ALM-74 5.0 μg/ml",1.069
same,Combination Index,"Etoposide 1 × 10^−4 mol/L, ALM-74 0.1 μg/ml",0.355
same,Combination Index,"Etoposide 1 × 10^−4 mol/L, ALM-74 0.5 μg/ml",0.402
same,Combination Index,"Etoposide 1 × 10^−4 mol/L, ALM-74 1.0 μg/ml",0.307
same,Combination Index,"Etoposide 1 × 10^−4 mol/L, ALM-74 5.0 μg/ml",0.349
same,Combination Index,"Etoposide 1 × 10^−5 mol/L, ALM-74 0.1 μg/ml",No
same,Combination Index,"Etoposide 1 × 10^−5 mol/L, ALM-74 0.5 μg/ml",0.613
same,Combination Index,"Etoposide 1 × 10^−5 mol/L, ALM-74 1.0 μg/ml",0.031
same,Combination Index,"Etoposide 1 × 10^−5 mol/L, ALM-74 5.0 μg/ml",0.053
same,Combination Index,"Etoposide 1 × 10^−6 mol/L, ALM-74 0.1 μg/ml",No
same,Combination Index,"Etoposide 1 × 10^−6 mol/L, ALM-74 0.5 μg/ml",No
same,Combination Index,"Etoposide 1 × 10^−6 mol/L, ALM-74 1.0 μg/ml",0.015
same,Combination Index,"Etoposide 1 × 10^−6 mol/L, ALM-74 5.0 μg/ml",0.200
same,Combination Index,"Etoposide 1 × 10^−7 mol/L, ALM-74 0.1 μg/ml",No
same,Combination Index,"Etoposide 1 × 10^−7 mol/L, ALM-74 0.5 μg/ml",No
same,Combination Index,"Etoposide 1 × 10^−7 mol/L, ALM-74 1.0 μg/ml",0.016
same,Combination Index,"Etoposide 1 × 10^−7 mol/L, ALM-74 5.0 μg/ml",0.231
same,Combination Index,"Etoposide 1 × 10^−8 mol/L, ALM-74 0.1 μg/ml",No
same,Combination Index,"Etoposide 1 × 10^−8 mol/L, ALM-74 0.5 μg/ml",No
same,Combination Index,"Etoposide 1 × 10^−8 mol/L, ALM-74 1.0 μg/ml",0.016
same,Combination Index,"Etoposide 1 × 10^−8 mol/L, ALM-74 5.0 μg/ml",0.261
same,Combination Index,"Etoposide 1 × 10^−9 mol/L, ALM-74 0.1 μg/ml",No
same,Combination Index,"Etoposide 1 × 10^−9 mol/L, ALM-74 0.5 μg/ml",No
same,Combination Index,"Etoposide 1 × 10^−9 mol/L, ALM-74 1.0 μg/ml",0.019
same,Combination Index,"Etoposide 1 × 10^−9 mol/L, ALM-74 5.0 μg/ml",0.251
same,Combination Index,"Etoposide 1 × 10^−10 mol/L, ALM-74 0.1 μg/ml",0.724
same,Combination Index,"Etoposide 1 × 10^−10 mol/L, ALM-74 0.5 μg/ml",No
same,Combination Index,"Etoposide 1 × 10^−10 mol/L, ALM-74 1.0 μg/ml",0.022
same,Combination Index,"Etoposide 1 × 10^−10 mol/L, ALM-74 5.0 μg/ml",0.265
same,Combination Index,"Irinotecan 1 × 10^−3 mol/L, ALM-74 0.1 μg/ml",0.916
same,Combination Index,"Irinotecan 1 × 10^−3 mol/L, ALM-74 0.5 μg/ml",0.121
same,Combination Index,"Irinotecan 1 × 10^−3 mol/L, ALM-74 1.0 μg/ml",No
same,Combination Index,"Irinotecan 1 × 10^−3 mol/L, ALM-74 5.0 μg/ml",No
same,Combination Index,"Irinotecan 1 × 10^−4 mol/L, ALM-74 0.1 μg/ml",0.189
same,Combination Index,"Irinotecan 1 × 10^−4 mol/L, ALM-74 0.5 μg/ml",0.302
same,Combination Index,"Irinotecan 1 × 10^−4 mol/L, ALM-74 1.0 μg/ml",0.051
same,Combination Index,"Irinotecan 1 × 10^−4 mol/L, ALM-74 5.0 μg/ml",0.051
same,Combination Index,"Irinotecan 1 × 10^−5 mol/L, ALM-74 0.1 μg/ml",No
same,Combination Index,"Irinotecan 1 × 10^−5 mol/L, ALM-74 0.5 μg/ml",No
same,Combination Index,"Irinotecan 1 × 10^−5 mol/L, ALM-74 1.0 μg/ml",0.025
same,Combination Index,"Irinotecan 1 × 10^−5 mol/L, ALM-74 5.0 μg/ml",0.616
same,Combination Index,"Irinotecan 1 × 10^−6 mol/L, ALM-74 0.1 μg/ml",0.518
same,Combination Index,"Irinotecan 1 × 10^−6 mol/L, ALM-74 0.5 μg/ml",No
same,Combination Index,"Irinotecan 1 × 10^−6 mol/L, ALM-74 1.0 μg/ml",0.055
same,Combination Index,"Irinotecan 1 × 10^−6 mol/L, ALM-74 5.0 μg/ml",0.589
same,Combination Index,"Irinotecan 1 × 10^−7 mol/L, ALM-74 0.1 μg/ml",0.067
same,Combination Index,"Irinotecan 1 × 10^−7 mol/L, ALM-74 0.5 μg/ml",No
same,Combination Index,"Irinotecan 1 × 10^−7 mol/L, ALM-74 1.0 μg/ml",0.054
same,Combination Index,"Irinotecan 1 × 10^−7 mol/L, ALM-74 5.0 μg/ml",0.726
same,Combination Index,"Irinotecan 1 × 10^−8 mol/L, ALM-74 0.1 μg/ml",0.046
same,Combination Index,"Irinotecan 1 × 10^−8 mol/L, ALM-74 0.5 μg/ml",No
same,Combination Index,"Irinotecan 1 × 10^−8 mol/L, ALM-74 1.0 μg/ml",0.066
same,Combination Index,"Irinotecan 1 × 10^−8 mol/L, ALM-74 5.0 μg/ml",0.895
same,Combination Index,"Irinotecan 1 × 10^−9 mol/L, ALM-74 0.1 μg/ml",0.049
same,Combination Index,"Irinotecan 1 × 10^−9 mol/L, ALM-74 0.5 μg/ml",No
same,Combination Index,"Irinotecan 1 × 10^−9 mol/L, ALM-74 1.0 μg/ml",0.078
same,Combination Index,"Irinotecan 1 × 10^−9 mol/L, ALM-74 5.0 μg/ml",0.973
same,Combination Index,"Irinotecan 1 × 10^−10 mol/L, ALM-74 0.1 μg/ml",0.22
same,Combination Index,"Irinotecan 1 × 10^−10 mol/L, ALM-74 0.5 μg/ml",No
same,Combination Index,"Irinotecan 1 × 10^−10 mol/L, ALM-74 1.0 μg/ml",0.086
same,Combination Index,"Irinotecan 1 × 10^−10 mol/L, ALM-74 5.0 μg/ml",0.720

# — US20090047221A1 (NIPRI LIMITED, priority 2004, published 2009)
